The results in this text go back to US7759373B2, “Large conductance calcium-activated K channel opener” (Mitsubishi Tanabe Pharma Corporation, priority 2001, dated 2010).

In assay [1] the test system is isolated rabbit urinary bladder. Briefly: Relaxation effect on potassium-induced contraction of isolated rabbit urinary bladder. The format is cell-based. As to conditions: Oryctolagus cuniculus; 50% relaxation concentration; high-K+ (30 mM) pre-contracted rabbit bladder strips; relaxation as percentage of the maximum produced by 0.1 mM papaverine; read-out: EC50 value range. The protocol:
Relaxation effect on potassium-induced contraction of isolated rabbit urinary bladder
Urinary bladder was isolated from Male NZW rabbits (2.0-3.5 kg) and immersed in ice-cold Krebs-bicarbonate solution (in mM: 118 NaCl, 4.7 KCl, 1.2, 2.5 CaCl2, MgSO4, 1.2 KH2PO4, 11 glucose, 25 NaHCO3). The urinary bladder was cut into longitudinal strips (5 mm length, 3-4 mm width) after mucosal layer was removed. Preparations were mounted in organ baths containing 10 ml of Krebs solution maintained at 37° C. and gassed with 95% O2/5% CO2. Accordingly, preparations were stretched with an initial tension of 2.0±1.0 g, and changes in isometric tension were measured by force-displacement transducer. The preparations were pre-contracted by changing organ-bath solution into high-K^+ (30 mM) Krebs solution (in mM: 92.7 NaCl, 30 KCl, 1.2, 2.5 CaCl2, MgSO4, 1.2 KH2PO4, 11 glucose, 25 NaHCO3).
After stable tension was obtained, compounds were added into organ baths cumulatively (10^−8M-10^−4M). The effects of compounds were expressed as a percentage of the maximum relaxation produced by 0.1 mM papaverine. 50% relaxation concentration (EC50) was calculated and EC50 value range (μM) of the compounds of the present invention was shown in the following Table 64 with a rank of A, B or C. These ranges are as mentioned below. 3≧C≧1≧B≧0.5≧A

The test system of assay [2] is rhythmic bladder contractions induced by substance P. The assay can be described thus: Inhibitory effect on the rhythmic bladder contractions induced by substance P in anesthetized rats. The format is in vivo, rat. The note with it: time during which frequency of rhythmic contraction was completely inhibited, 0.25 mg/kg of the compound, substance P infusion. The essentials:
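Urethane-anesthetized female Sprague-Dawley rats with rhythmic bladder contractions driven by i.v. substance P (0.33 μg/kg/min). Compound given i.v. in saline/0.5% Tween 80 once contractions stable 15 min; intravesical pressure monitored, duration of 100% inhibition ranked A ≥20, B ≥10, C <10 min.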

The EC50 is the concentration at which the effect is half-maximal.

Structures are written as SMILES. A value given as a limit tells only on which side of the number the result lay.

For `COc1ccc(-c2nc(CC(=O)O)c(-c3ccc(Cl)s3)o2)cc1Cl` [Preparation Example 280], the concentration giving a half-maximal response (EC50) in assay [1] is not above 0.5 µM. For the same compound, the “100% inhibition time range” value in assay [2] was “C (A≧20>B≧10>C (minute))”.
With `CSc1ccc(-c2nc(CC(=O)O)c(-c3ccc(Cl)s3)o2)cc1` [Preparation Example 281], in assay [1], the 50% effective concentration (EC50) is not above 0.5 µM. Besides, the “100% inhibition time range” value in assay [2] was “C (A≧20>B≧10>C (minute))”.
`O=C(O)Cc1nc(-c2ccc3c(c2)CCO3)oc1-c1ccc(Cl)s1` [Preparation Example 282]: the EC50 in assay [1] was in the range of 0.5 to 1 µM. Further, the “100% inhibition time range” value in assay [2] was “B (A≧20>B≧10>C (minute))”.
In the case of `O=C(O)Cc1nc(-c2ccc3c(c2)OCCO3)oc1-c1ccc(Cl)s1` [Preparation Example 283], in assay [1], the EC50 is not above 0.5 µM. The “100% inhibition time range” value in assay [2] was “C (A≧20>B≧10>C (minute))”.
For `O=C(O)Cc1nc(-c2ccc3ncccc3c2)oc1-c1ccc(Cl)s1` [Preparation Example 284], the EC50 in assay [1] was in the range of 1 to 3 µM. Also, in assay [2], the “100% inhibition time range” value is “B (A≧20>B≧10>C (minute))”.
Turning to `O=C(O)Cc1nc(-c2ccc(F)cc2)oc1-c1ccc2occc2c1` [Preparation Example 285], the EC50 in assay [1] is 1 to 3 µM. For the same compound, in assay [2], the “100% inhibition time range” value is on record as “B (A≧20>B≧10>C (minute))”.
As to `O=C(O)Cc1nc(-c2ccc(F)cc2)oc1-c1csc(Cl)c1` [Preparation Example 286], the EC50 in assay [1] is not above 0.5 µM. In addition, the “100% inhibition time range” value in assay [2] is “C (A≧20>B≧10>C (minute))”.
For the compound `O=C(O)Cc1nc(-c2ccc3occc3c2)oc1-c1csc(Cl)c1` [Preparation Example 287], the EC50 in assay [1] was not above 0.5 µM. Further, the “100% inhibition time range” value in assay [2] is given as “B (A≧20>B≧10>C (minute))”.
On the same counts, the results for `O=C(O)Cc1nc(-c2ccc3occc3c2)oc1-c1cc(Cl)cs1` [Preparation Example 288] are not above 0.5 µM and “C (A≧20>B≧10>C (minute))”.
Regarding `Cl.N#CCCc1[nH]c(-c2ccc(F)cc2)nc1-c1ccccc1O` [Preparation Example 350, 5-(2-cyanoethyl)-2-(4-fluorophenyl)-4-(2-hydroxyphenyl)-imidazole hydrochloride], in assay [1], the EC50 is 1 to 3 µM. In assay [2], the “100% inhibition time range” value is given as “B (A≧20>B≧10>C (minute))”.
`CN(C)c1ncc(-c2nc(CC(=O)O)c(-c3ccc(Cl)s3)o2)cn1` [Preparation Example 362]: the EC50 in assay [1] fell in the range of 1 to 3 µM. The “100% inhibition time range” value in assay [2] is “A (A≧20>B≧10>C (minute))”.
Turning to `CCN(C)c1ncc(-c2nc(CC(=O)O)c(-c3ccc(Cl)s3)o2)cn1` [Preparation Example 363], in assay [1], the EC50 fell in the range of 1 to 3 µM. In addition, the “100% inhibition time range” value in assay [2] was “C (A≧20>B≧10>C (minute))”.
In the case of `CN(C)c1ncc(-c2nc(CC(=O)O)c(-c3ccc(Cl)c(S)c3)o2)cn1` [Preparation Example 364], the 50% effective concentration (EC50) in assay [1] fell in the range of 1 to 3 µM. In addition, in assay [2], the “100% inhibition time range” value is “B (A≧20>B≧10>C (minute))”.
For `CSc1ccc(-c2nc(CC(=O)[O-])c(-c3ccsc3)o2)cn1.[Na+]` [Preparation Example 365, 2-(6-methylthiopyridin-3-yl)-5-(3-thienyl)oxazol-4-yl acetic acid sodium salt], the EC50 in assay [1] lay in the range of 1 to 3 µM. The “100% inhibition time range” value in assay [2] was “B (A≧20>B≧10>C (minute))”.
As to `CSc1ccc(-c2nc(CC(=O)[O-])c(-c3cccs3)o2)cn1.[Na+]` [Preparation Example 366, 2-(6-methylthiopyridin-3-yl)-5-(2-thienyl)oxazol-4-yl acetic acid sodium salt], the half-maximal effective concentration (EC50) in assay [1] was not above 0.5 µM. Besides, the “100% inhibition time range” value in assay [2] was “C (A≧20>B≧10>C (minute))”.
Turning to `CCOc1ccc(-c2nc(CC(=O)[O-])c(-c3ccc(Cl)s3)o2)cn1.[Na+]` [Preparation Example 367, 2-(6-ethoxypyridin-3-yl)-5-(5-chlorothiophen-2-yl)oxazol-4-yl acetic acid sodium salt], the EC50 in assay [1] was 0.5 to 1 µM. The “100% inhibition time range” value in assay [2] is listed as “A (A≧20>B≧10>C (minute))”.
Regarding `CONC(=O)Cc1nc(-c2ccc(F)cc2)oc1-c1ccsc1` [Preparation Example 373, N-methoxy-[2-(4-fluorophenyl)-5-(3-thienyl)oxazol-4-yl]acetamide], the EC50 in assay [1] fell in the range of 1 to 3 µM. Further, the “100% inhibition time range” value in assay [2] is listed as “C (A≧20>B≧10>C (minute))”.
Consider `CNC(=O)Cc1nc(-c2ccc(F)cc2)oc1-c1ccsc1` [Preparation Example 374], for which the EC50 in assay [1] fell in the range of 1 to 3 µM. The “100% inhibition time range” value in assay [2] is “C (A≧20>B≧10>C (minute))”.
On the same counts, the results for `CS(=O)(=O)NCCc1nc(-c2ccc(F)cc2)oc1-c1ccsc1.[Na]` [Preparation Example 378, 2-(4-fluoro-phenyl)-4-methanesulfonylaminoethyl-5-(3-thienyl)oxazole sodium salt] are 1 to 3 µM and “C (A≧20>B≧10>C (minute))”.
`COc1ccc(-c2nc(CC(=O)O)c(-c3cccs3)o2)cc1F` [Preparation Example 431]: the EC50 in assay [1] was in the range of 0.5 to 1 µM. In addition, the “100% inhibition time range” value in assay [2] is “B (A≧20>B≧10>C (minute))”.
In the same order, the values of `Cc1cccc(-c2nc(CC(=O)O)c(-c3cccs3)o2)c1` [Preparation Example 432] are not above 0.5 µM and “C (A≧20>B≧10>C (minute))”.
In the case of `O=C(O)Cc1nc(-c2ccc3ccccc3n2)oc1-c1ccc(Cl)s1` [Preparation Example 434], in assay [1], the EC50 lay within 0.5 to 1 µM. The “100% inhibition time range” value in assay [2] is reported as “B (A≧20>B≧10>C (minute))”.
For `O=C(O)Cc1nc(-c2cc3ccccc3o2)oc1-c1ccc(Cl)s1` [Preparation Example 435], in assay [1], the 50% effective concentration (EC50) lay in the range of 0.5 to 1 µM. In addition, in assay [2], the “100% inhibition time range” value was “B (A≧20>B≧10>C (minute))”.
With `O=C(O)Cc1nc(-c2cc3ccccc3s2)oc1-c1ccsc1` [Preparation Example 437], the EC50 in assay [1] is not above 0.5 µM. The “100% inhibition time range” value in assay [2] is given as “B (A≧20>B≧10>C (minute))”.
In the same order, the values of `COc1ccc(-c2nc(CC(=O)O)c(-c3ccsc3)o2)cc1C` [Preparation Example 438] are 1 to 3 µM and “C (A≧20>B≧10>C (minute))”.
For the compound `CN(C)c1ccc(-c2nc(CC(=O)O)c(-c3ccc(Cl)s3)o2)cc1` [Preparation Example 441], the EC50 in assay [1] is 1 to 3 µM. In assay [2], the “100% inhibition time range” value is recorded as “B (A≧20>B≧10>C (minute))”.
`O=C(O)Cc1nc(-c2cnc3occc3c2)oc1-c1ccc(Cl)s1` [Preparation Example 444]: in assay [1], the EC50 is 1 to 3 µM. Further, in assay [2], the “100% inhibition time range” value was “B (A≧20>B≧10>C (minute))”.
Consider `CSc1ncc(-c2nc(CC(=O)O)c(-c3ccc(Cl)s3)o2)cn1` [Preparation Example 445], for which the concentration for a half-maximal effect (EC50) in assay [1] was in the range of 1 to 3 µM. For the same compound, the “100% inhibition time range” value in assay [2] is “A (A≧20>B≧10>C (minute))”.
Regarding `O=C(O)Cc1nc(-c2nc3ccccc3s2)oc1-c1ccc(Cl)s1` [Preparation Example 446], the concentration for a half-maximal effect (EC50) in assay [1] was not above 0.5 µM. Also, the “100% inhibition time range” value in assay [2] is “C (A≧20>B≧10>C (minute))”.
On the same counts, the results for `O=C(O)Cc1nc(-c2cc3ccc(F)cc3s2)oc1-c1ccc(Cl)s1` [Preparation Example 451] are 1 to 3 µM and “B (A≧20>B≧10>C (minute))”.
Turning to `Cc1ccc(-c2nc(CC(=O)O)c(-c3ccc(Cl)s3)o2)cn1` [Preparation Example 452], in assay [1], the EC50 was not above 0.5 µM. Further, the “100% inhibition time range” value in assay [2] was “B (A≧20>B≧10>C (minute))”.
On to `CN1CCc2cc(-c3nc(CC(=O)O)c(-c4ccc(Cl)s4)o3)ccc21` [Preparation Example 453], for which the EC50 in assay [1] lay within 0.5 to 1 µM. In addition, the “100% inhibition time range” value in assay [2] was “C (A≧20>B≧10>C (minute))”.
As to `O=C(O)Cc1nc(-c2cc3ccccc3s2)oc1-c1ccc(Cl)cc1` [Preparation Example 454], the half-maximal effective concentration (EC50) in assay [1] was 1 to 3 µM. Moreover, the “100% inhibition time range” value in assay [2] is reported as “A (A≧20>B≧10>C (minute))”.
Take `CSc1ccc(-c2nc(CC(=O)O)c(-c3ccc(Cl)cc3)o2)cc1` [Preparation Example 455]: the EC50 in assay [1] fell in the range of 1 to 3 µM. The “100% inhibition time range” value in assay [2] is on record as “B (A≧20>B≧10>C (minute))”.
For `Cc1ccc(-c2nc(CC(=O)O)c(-c3ccc(Cl)s3)o2)s1` [Preparation Example 458], in assay [1], the EC50 is not above 0.5 µM. The “100% inhibition time range” value in assay [2] is “B (A≧20>B≧10>C (minute))”.
Turning to `Cc1nc2cc(-c3nc(CC(=O)O)c(-c4ccc(Cl)s4)o3)ccc2s1` [Preparation Example 459], in assay [1], the half-maximal effective concentration (EC50) was in the range of 1 to 3 µM. Further, in assay [2], the “100% inhibition time range” value is reported as “C (A≧20>B≧10>C (minute))”.
For `CSc1ncc(-c2nc(CC(=O)O)c(-c3ccc(Cl)c(F)c3)o2)cn1` [Preparation Example 462], in assay [1], the EC50 fell in the range of 0.5 to 1 µM. For the same compound, the “100% inhibition time range” value in assay [2] is reported as “C (A≧20>B≧10>C (minute))”.
In the case of `COCc1ccc(-c2nc(CC(=O)O)c(-c3ccc(Cl)s3)o2)cn1` [Preparation Example 464], in assay [1], the EC50 lay within 1 to 3 µM. Moreover, in assay [2], the “100% inhibition time range” value is reported as “C (A≧20>B≧10>C (minute))”.
For the compound `Cn1ccc2cc(-c3nc(CC(=O)O)c(-c4ccc(Cl)s4)o3)ccc21` [Preparation Example 469], the concentration for a half-maximal effect (EC50) in assay [1] lay within 1 to 3 µM. Besides, the “100% inhibition time range” value in assay [2] is “B (A≧20>B≧10>C (minute))”.
